Reference: patent EP0688431B1, “METHOD FOR SCREENING CATALYTIC NON-ENZYME POLYPEPTIDES AND PROTEINS” (YEDA RESEARCH AND DEVELOPMENT CO. LTD., priority 1993, dated 1994)

Biological target: antibody D2.3
Assay: Binding of the product to the catalytic antibody
Design: species or system Balb/c mice
Settings: binding to antibody D2.3

O=[N+]([O-])c1ccc(CO)cc1 [p-nitrobenzyl alcohol]
Kd: 52 µM
